Test results: PMC11044151, “Development of Half-Sandwich Ru, Os, Rh, and Ir Complexes Bearing the Pyridine-2-ylmethanimine Bidentate Ligand Derived from 7-Chloroquinazolin-4(3H)-one with Enhanced Antiproliferative Activity” (ACS Omega, 2024)

Experiments:
[1] = Stability study in the presence of L-histidine (UV-vis, HPLC-MS); assay type: physicochemical; settings: 20 μM complex, 0.2 mM L-histidine in water, 0.5 vol % DMSO, followed over 2 h
From the text: (§1) For biological studies, compounds are commonly administered as dimethyl sulfoxide (DMSO) solution to cells cultured in a specific medium such as Dulbecco’s modified Eagle’s medium (DMEM). DMEM consists of numerous organic compounds which may act as ligands for organometallics. Therefore, it is important to know how the compounds behave in such conditions. The two most prominent components of DMEM which may coordinate to half-sandwich complexes are L-cysteine and L-histidine. Both of those amino acids are present in DMEM at 0.2 mM concentration, so we studied how the complexes interact with them using UV–vis spectroscopy and HPLC-MS analysis. The DMSO solutions of complexes were added to the aqueous solution of L-cysteine or L-histidine to achieve a complex concentration of 20 μM while keeping the DMSO concentration at 0.5 vol %. […] HPLC-MS analysis confirmed the formation of an additional peak at τ = 0.95 min with m/z 714 assigned to [M-Cl-PF6 + HCOOH]^+; additionally, the intensity of peaks corresponding to 3c is lower (Figure S26). […] The intensity of absorbance peaks at λ = 287 and λ = 372 nm in the presence of cysteine is decreasing, while the intensity of peaks at λ = 304 and λ = 318 nm is almost intact.
(§2) The stability of 3a–d was studied in the presence of L-cysteine or L-histidine. 3a–d were dissolved in DMSO and added to 0.2 mM aqueous solution of L-cysteine or L-histidine to achieve the complex concentration of 20 μM while keeping the DMSO concentration at 0.5 vol %. UV–vis spectra were recorded over 2 h with 10 min intervals.

SW620M = experiment: Neutral red uptake antiproliferative assay, MDR line SW620M; assay type: cell-based, human; settings: for IC50: exposure time 72 h, n = 3, ABCC1-overexpressing MDR line; for activity factor IC50(1)/IC50(3a–4d), SW620M: vs corresponding amine (R)-1 or (S)-1, 72 h
From the text: (§3) Next, we evaluated the cytotoxicity of the synthesized complexes toward the panel of six multidrug-resistant (MDR) cell lines derived from SW620 and characterized by the overexpression of various ABC proteins, namely, ABCG2 (SW620C and SW620Mito), ABCC1 (SW620M and SW620E), and ABCB1 (SW620D, SW620E, and SW620V) (Table 3, Figures S29 and S32). […] The activity of the complexes derived from the ligand (S)-2 is also considerably higher than that of the compounds containing the ligand (R)-2. The cytotoxicity of both rhodium 4c and iridium 4d complexes is higher than that of amine (S)-1. In the case of 4c, the increase in cytotoxicity is low, with the highest value of 3.7-fold for the SW620Mito line. […] Compound 4d also exerts a 2.1- and 2.6-fold higher cytotoxicity than […] against the SW620C and SW620D lines.
(§4) For this purpose, neutral red uptake assay was performed. […] The results were presented as a percentage of control.

MCF7 = experiment: cells; settings: for IC50: read-out: IC50 MCF7, exposure time 72 h, n = 3, 95% CI given; for activity factor IC50(1)/IC50(3a–4d), MCF7: vs corresponding amine (R)-1 or (S)-1, 72 h
From the text: (§5) To assess the impact of conjugating half-sandwich complexes with amines 1 via an imine-pyridine ligand on biological activity, we examined the antiproliferative potential of (R)- and (S)-1 and organometallic conjugates 3a–d and 4a–d in selected human cancer cell lines: alveolar basal epithelial cell adenocarcinoma (A549), colorectal adenocarcinomas (Colo205 and SW620), colorectal carcinoma (HCT116), hepatocellular carcinoma (HepG2), and breast adenocarcinoma (MCF7). The choice of cell lines was dictated by results of previously published clinical trials on ispinesib.[49],[50]
(§6) Cell lines used in this study were purchased from the American Type Culture Collection via LGC Standards. Human normal lung fibroblasts (MRC-5), alveolar basal epithelial cell adenocarcinoma (A549), colorectal adenocarcinoma (Colo205), hepatocellular carcinoma (HepG2), breast adenocarcinoma (MCF7), and colorectal adenocarcinoma (SW620) and its MDR variants[55] were cultured in standard conditions (37 °C, 5% CO2, 100% relative humidity) in high glucose DMEM medium supplemented with GlutaMax, HEPES (ThermoFisher Scientific) and 10% fetal bovine serum (EURx, Poland). All cell lines were tested for Mycoplasma contamination using a MycoProbe mycoplasma detection kit (R&D System).
(§7) For this purpose, neutral red uptake assay was performed. 10^4 of cells were seeded per well of a 96-well plate and left overnight to allow cells to attach to the surface. Then, the cells were exposed to a desired concentration of tested compounds. Stock solutions were prepared in DMSO and were used immediately after preparation. The final concentration of DMSO was constant and nontoxic (0.1% v/v). After 70 h of culture, neutral red was added to the final concentration of 1 mM. After 2 h of incubation with the dye, the medium was aspirated and cells were washed with ice-cold PBS. The dye was released using 100 μL of the solubilizer (1% acetic acid in 50% ethanol) on an orbital shaker (10 min). The absorbance at 540 nm was measured using an EnVision multilabel plate reader (PerkinElmer). […] The IC90 and IC50 parameters were calculated using GraphPad Prism v9 software using the five-parameter nonlinear logistic regression model.

SW620 cells = experiment: Cell cycle distribution by flow cytometry, SW620; assay type: cell-based, human; settings: concentration equal to IC75 of (S)-1 / (R)-1, mean ± SEM, n = 3; for Cell cycle fraction G1, 24 h / Cell cycle fraction G2/M, 24 h / Cell cycle fraction S, 24 h: SW620, 24 h; for Cell cycle fraction G1, 48 h / Cell cycle fraction G2/M, 48 h / Cell cycle fraction S, 48 h: SW620, 48 h
Method: Ispinesib leads to the formation of monopolar mitotic spindles and a blockade of chromosome segregation in cancer cells. Using flow cytometry, we assessed the cell cycle distribution in the SW620 and SW620E cells exposed to the studied compounds for 24 and 48 h. […] Both complexes, 3c and 3d, decrease the percentage of cells in the G1/G0 phase and increase the percentage in the S and G2/M phases. […] Furthermore, prolonged exposure to the compounds increases the percentage of cells in the G2/M phase, with the most intensive effect observed for 3c and 3d.
SW620 and SW620E cells lines (vulnerable and resistant variants, respectively) were seeded in 6-well plates at a density of 10^5 cells per well. […] After 24 h, the cells were trypsinized and fixed with ice-cold 70% v/v ethanol. The cells were stained with 75 μM propidium iodide with 50 Kunitz units of RNase A in PBS for 30 min at 37 °C. All samples were analyzed using a LSRII flow cytometer (Becton Dickinson) at a PE channel ([…]). Cell cycle phase distribution was determined using a built-in cell cycle module (Watson pragmatic algorithm) by FlowJo 7.6.1 software.

[2] = Stability study in the presence of L-cysteine (UV-vis, HPLC-MS); assay type: physicochemical; settings: 20 μM complex, 0.2 mM L-cysteine in water, 0.5 vol % DMSO, followed over 2 h
From the text: as §1, §2

SW620Mito = experiment: Neutral red uptake antiproliferative assay, MDR line SW620Mito; assay type: cell-based, human; settings: for IC50: exposure time 72 h, n = 3, ABCG2-overexpressing MDR line; for activity factor IC50(1)/IC50(3a–4d), SW620Mito: vs corresponding amine (R)-1 or (S)-1, 72 h
From the text: as §3, §4

SW620 = experiment: Neutral red uptake antiproliferative assay, SW620; assay type: cell-based, human; settings: for IC50: exposure time 72 h, n = 3, 95% CI given; for activity factor IC50(1)/IC50(3a–4d), SW620: vs corresponding amine (R)-1 or (S)-1, 72 h
From the text: as §5, §6, §7

IC50 (SW620M) [nM] | activity factor IC50(1)/IC50(3a–4d), SW620M (SW620M) | IC50 (MCF7) [nM] | activity factor IC50(1)/IC50(3a–4d), MCF7 (MCF7) | IC50 (SW620Mito) [nM] | activity factor IC50(1)/IC50(3a–4d), SW620Mito (SW620Mito) | IC50 (SW620) [nM] | activity factor IC50(1)/IC50(3a–4d), SW620 (SW620) | Compound | reaction with L-histidine (stability) [1] | Cell cycle fraction G1, 24 h (SW620 cells) [%] | Cell cycle fraction G2/M, 24 h (SW620 cells) [%] | Cell cycle fraction S, 24 h (SW620 cells) [%] | Cell cycle fraction G1, 48 h (SW620 cells) [%] | Cell cycle fraction G2/M, 48 h (SW620 cells) [%] | Cell cycle fraction S, 48 h (SW620 cells) [%] | reaction with L-cysteine (stability) [2] | increased cytotoxicity vs corresponding amine 1, MCF7 (MCF7) [fold]
1180 | (0.204) | 357 | (0.647) | 524 | (0.498) | 152 | (0.632) | CC(C)[C@@H](N=Cc1ccccn1)c1nc2cc(Cl)ccc2c(=O)n1Cc1ccccc1.Cc1c(C)c(C)[c-](C)c1C.F[P-](F)(F)(F)(F)F.[Cl-].[Rh+3] [Compound 3c, [(Cp*)Rh((R)-2)Cl]PF6] | A similar effect is observed in the case of L-histidine | 33.9 ± 2.5 | 40.9 ± 3.5 | 24.2 ± 1.4 | 23.1 ± 1.7 | 54.5 ± 1.8 | 20.8 ± 2.2 | slowly reacts with L-cysteine | –
247 | (0.976) | 653 | (0.354) | 268 | (0.974) | 198 | (0.485) | CC(C)[C@@H](N=Cc1ccccn1)c1nc2cc(Cl)ccc2c(=O)n1Cc1ccccc1.Cc1c(C)c(C)[c-](C)c1C.F[P-](F)(F)(F)(F)F.[Cl-].[Ir+3] [Compound 3d, [(Cp*)Ir((R)-2)Cl]PF6] | reacts with both L-cysteine and L-histidine (Figure 6) in 40 min | 30.8 ± 0.8 | 43.4 ± 1.5 | 25.4 ± 0.8 | 24.3 ± 1.2 | 55.9 ± 1.1 | 19.3 ± 0.4 | reacts with both L-cysteine and L-histidine (Figure 6) in 40 min | –
591 | (0.408) | 73 | (3.16) | 748 | (0.349) | 556 | (0.173) | CC(C)[C@@H](N=Cc1ccccn1)c1nc2cc(Cl)ccc2c(=O)n1Cc1ccccc1.Cc1ccc(C(C)C)cc1.F[P-](F)(F)(F)(F)F.[Cl-].[Os+2] [Compound 3b, [(cym)Os((R)-2)Cl]PF6] | neither ruthenium 3a nor the osmium complex 3b reacts with those amino acids within 2 h | 51.4 ± 1.2 | 35.3 ± 1.4 | 12.5 ± 2.1 | 41.4 ± 0.7 | 45.0 ± 0.5 | 12.7 ± 1.1 | neither ruthenium 3a nor the osmium complex 3b reacts with those amino acids within 2 h | 3
3450 | (0.070) | 858 | (0.269) | 4330 | (0.060) | 1220 | (0.079) | CC(C)[C@@H](N=Cc1ccccn1)c1nc2cc(Cl)ccc2c(=O)n1Cc1ccccc1.Cc1ccc(C(C)C)cc1.F[P-](F)(F)(F)(F)F.[Cl-].[Ru+2] [Compound 3a, [(cym)Ru((R)-2)Cl]PF6] | neither ruthenium 3a nor the osmium complex 3b reacts with those amino acids within 2 h | 51.9 ± 1.0 | 32.5 ± 1.5 | 14.9 ± 0.6 | 44.8 ± 0.7 | 40.2 ± 1.1 | 14.3 ± 0.4 | neither ruthenium 3a nor the osmium complex 3b reacts with those amino acids within 2 h | –
